Here are results for two molecules from patent US9956199B2, “Chromane-like cyclic prenylflavonoids for the medical intervention in neurological disorders” (priority 2011, dated 2018).

Entries after “also recorded” stand apart in the source; their conditions may differ.

In assay [1] the test system is promoter of the neuronal precursor specific gene doublecortin (DCX). Put plainly: DCX promoter firefly-luciferase assay in primary fetal mouse brain derived (MEF) cells. Format: cell-based. The note with it: for effect on DCX promoter induction: 10 μM, MEF cells, three days; for stimulatory effect on the DCX promoter activity (FF/R relative to control): DCX promoter-luciferase transfected MEF cells, stimulated three days. As to the method: Primary mouse embryonic day 16 forebrain (MEF) cultures were prepared as follows. Pregnant NMRI mice (Charles River Laboratories, Sulzfeld, Germany) were sacrificed and the uteri promptly removed and immersed in ice-cold Dulbecco's phosphate buffered saline solution—DPBS (PAA, Pasching, Austria). Eight embryonic day (E) 16 embryos were released from the uteri; forebrains were taken out, separated from surrounding tissues and mechanically dissociated using a razor blade. Subsequently the dissociated cells were collected by 5 min centrifugation at 120×g. The pellet was resuspended in 10 ml PPD-solution containing 0.01% papain (Worthington, England), 0.1% Dispasell (Roche, Basel, Switzerland), 0.01% DNasel (Worthington, England), 12.4 mM MgSO4 dissolved in HBSS w/o Ca/Mg (PAA, Pasching, Austria). The cell suspension was incubated at 37° C. and triturated every ten minutes for three times. The cell suspension was then centrifuged at 120×g for 5 minutes and washed three times in Neurobasal medium (Gibco BRL, Germany) supplemented with 2% (v/v) B27 (Gibco BRL, Karlsruhe), 2 mM L-glutamine, 100 μg/ml Penicillin/Streptomycin (PAN Biotech GmbH, Aidenbach, Germany). Finally, the cell preparation was resuspended in 12 ml Neurobasal medium supplemented with B27 (Gibco BRL, Karlsruhe), 2 mM L-glutamine, 100 μg/ml Penicillin/Streptomycin (PAN Biotech GmbH, Aidenbach, Germany), 20 ng/ml Epidermal Growth Factor—rhEGF, 20 ng/ml Fibroblast Growth Factor—rhFGF (R&D Systems, Wiesbaden-Nordenstadt, Germany) and 2 μg/ml Heparin (Sigma-Aldrich, Taufkirchen, Germany) (NB plus all), seeded in one T75 flask (TPP, Switzerland) and maintained in a humidified atmosphere at 37° C. and 5% CO2. […] On this day (day 2), half of the medium was refreshed and on day 4 cells were passaged. To passage the cells, the culture medium containing the floating neurospheres was collected in a 15 ml tube (Corning, Lowell, USA) and centrifuged at 120×g for 5 min. For dissociation, the pellet was resuspended in 500 μl Accutase (PAA, Pasching, Austria) and triturated using a 1 ml pipette. The cell suspension was incubated at 37° C. for 10 min, and then, 10 ml media were added. Cell number was determined by Trypan blue exclusion.
Luciferase assays were performed using a noncommercial dual luciferase enzyme assay system (Dyer et al., 2000, Anal Biochem). In this system, a co-transfection with pDCX-Luci and a control vector driving Renilla-luciferase under the CMV promoter was performed. The two different luciferases have different specific substrates and, therefore, the DCX regulatory region driven firefly luciferase activity can be distinguished from CMV driven Renilla-luciferase. For analysis, the firefly luciferase activity was normalized against the CMV driven Renilla-luciferase. For each transfection reaction, a volume containing two million cells was transferred into a 15 ml tube (Corning, Lowell, USA), centrifuged at 120×g for 5 min to pellet the cells and resuspended in 100 μl Amaxa Mouse Neural Stem Cell Nucleofector Kit (Lonza, Kln, Germany). Then, pDCX-Luci (Karl, 2005) and pRL3 (Promega, Mannheim, Germany) (5 μg each) were added and the entire reaction mix was transferred into an Amaxa transfection cuvette. Transfection was done using the A-033 program in the Amaxa Nucleofector II (Lonza, Kln, Germany). Transfected cells were then pipetted into 20 ml of DMEM knockout medium (Gibco BRL, Germany) containing 20% serum replacement supplement (PAN Biotech GmbH, Aidenbach, Germany), 2 mM L-glutamine (PAN Biotech GmbH, Aidenbach, Germany) and 100 μg/ml Penicillin/Streptomycin (PAN Biotech GmbH, Aidenbach, Germany) (DMEM-KO plus supplements) in a 50 ml tube (Corning, Lowell, USA). From this resulting cell suspension, 200 μl per well were plated in Poly-Ornithine/Laminin coated 96-well-luciferase plates (Wimmer & Macho, Wels, Austria) in a cell density of 20.000 cells per well, as described herein below.

In assay [2] the test system is chicken dorsal root ganglion neurons. Put plainly: neurite outgrowth in primary chicken dorsal root ganglion neurons. It is filed as cell-based. The note with it: E8 and E15 DRG neurons, 12 to 24 hours; compound 1a 10 μM, NGF 20 ng/ml; GAP-43 staining. As to the method: Dorsal root ganglion neurons comprise of an axon with two branches and are a good model for neuronal differentiation. Embryonic day 8 and 15 chicken dorsal root ganglions were examined for immunochemical staining with GAP43 after incubation with NGF 20 ng/ml and compound 1a (ENDF1) 10 μM to analyze whether compound 1a alone or in combination with the nerve growth factor enhances neurite outgrowth and branching.
Embryonic day (E) 8 and E15 chicken Dorsal Root Ganglions (DRGs) were prepared as described in: Aigner, 1993; Aigner, 1995. Briefly, foetuses were taken out of the egg, decapitated and the DRGs were targeted from the ventral side. The 10 lumbar region DRGs per foetus were dissected, and a total of 100 DRGs were collected in 10 ml DPBS in a 15 ml Falcon tube. DRGs were centrifuged 120×g for 3 min and then enzymatically treated with 1 ml trypsin 0.5 mg/ml+EDTA 0.22 mg/ml (PAA, Pasching, Austria) for 15 min. Then, 9 ml of DMEM 10% FCS were added to inactivate the trypsin and DRGs were centrifuged 120×g for 5 min. DRGs were resuspended and washed with 5 ml of DMEM 10% FCS, pipetted up and down to dissociate them, centrifuged, resuspended in 5 ml of DMEM 10% FCS and transferred into a 60 mm diameter cell culture dish. […]

Consider `COc1cc2c(c(O)c1C(=O)/C=C/c1ccc(O)cc1)CCC(C)(C)O2` [Compound 1b, (E)-1-(5-hydroxy-7-methoxy-2,2-dimethylchroman-6-yl)-3-(4-hydroxyphenyl)prop-2-en-1-one], for which, in assay [1], the “effect on DCX promoter induction” value is given as “significantly higher than those exerted by the reference compounds”; the “stimulatory effect on the DCX promoter activity (FF/R relative to control)” value is “significantly and strongly induce; also recorded: very strong and significant stimulatory effect”.

In the case of `COc1cc2c(c(O)c1C(=O)/C=C/c1ccc(O)cc1)C=CC(C)(C)O2` [Compound 1a, (E)-1-(5-hydroxy-7-methoxy-2,2-dimethyl-2H-chromen-6-yl)-3-(4-hydroxyphenyl)prop-2-en-1-one], in assay [1], the “effect on DCX promoter induction” value was “significantly higher than those exerted by the reference compounds”; the “stimulatory effect on the DCX promoter activity (FF/R relative to control)” value is “significantly and strongly induce; also recorded: very strong and significant stimulatory effect”. The neurite extension entry in assay [2] is recorded as “strongly promote neurite extension; also recorded: promotes neurite extension to a similar degree as NGF; also recorded: almost in the range of NGF”.
